Measured values published in patent US10300060B2, “Trk-inhibiting compound” (ONO PHARMACEUTICAL CO., LTD., priority 2013, dated 2019).

Assays:
[1] = tested on: sodium monoiodoacetate-induced model rats; assay: Analgesic effect on sodium monoiodoacetate-induced model rats; format: in vivo, rat; details: MIA-induced model rats
b-Raf = b-Raf (Homo sapiens (Human), UniProt P15056); assay: Enzyme-inhibiting activity test of kinases other than Trk (selectivity experiment): b-Raf; format: biochemical; details: concentration of 3 μM; read-out: Inhibition rate (%) b-Raf
Description: (§1) A test substance (the present compound) was dissolved in dimethylsulfoxide to prepare a 100-fold concentration of the test concentration, 3 μM. The solution was further diluted to 25-fold with an assay buffer (20 mM HEPES, 0.01% Triton X-100, 2 mM DTT, pH 7.5) to obtain a test substance solution. In a similar manner a positive control substance solution was prepared with a positive control substance.
(§2) A 4-times concentration solution (5 μL) of the test substance prepared with the assay buffer, 5 μL of a 4-times concentration solution of substrate/ATP/metal (Mg) and 10 μL of a 2-times concentration solution of kinase were mixed in a well of a polypropylene 384-well plate and allowed to react at room temperature for 1 hour. The reaction was terminated by adding 60 μL of a Termination Buffer (QuickScout Screening Assist MSA; Carna Biosciences). The substrate peptide and the phosphorylated peptide in the reaction solution were separated and quantified. The kinase reaction was assessed from the product ratio (P/(P+S)) calculated from the height (S) of the peak of the substrate peptide and the height (P) of the peak of the phosphorylated peptide. Other kinases used in the kinase selectivity experiments were, for example, b-Raf and KDR. The following Table 3 indicates substrates, substrate concentrations, ATP concentrations and positive control substances used in respective kinase enzyme inhibition activity tests.

KDR = KDR (Homo sapiens (Human), UniProt P35968); assay: Enzyme-inhibiting activity test of kinases other than Trk (selectivity experiment): KDR; format: biochemical; details: concentration of 3 μM; read-out: Inhibition rate (%) KDR
Description: as §1, §2

[2] = test substance orally twice a day day 14 to 23, day 24 3 hours before measurement, right hind limb weight load ratio, experiment with tramadol as positive control
[3] = test substance orally twice a day day 14 to 23, day 24 3 hours before measurement, right hind limb weight load ratio, experiment with morphine as positive control

Chain of b-Raf (P15056 whole entry, species assumed): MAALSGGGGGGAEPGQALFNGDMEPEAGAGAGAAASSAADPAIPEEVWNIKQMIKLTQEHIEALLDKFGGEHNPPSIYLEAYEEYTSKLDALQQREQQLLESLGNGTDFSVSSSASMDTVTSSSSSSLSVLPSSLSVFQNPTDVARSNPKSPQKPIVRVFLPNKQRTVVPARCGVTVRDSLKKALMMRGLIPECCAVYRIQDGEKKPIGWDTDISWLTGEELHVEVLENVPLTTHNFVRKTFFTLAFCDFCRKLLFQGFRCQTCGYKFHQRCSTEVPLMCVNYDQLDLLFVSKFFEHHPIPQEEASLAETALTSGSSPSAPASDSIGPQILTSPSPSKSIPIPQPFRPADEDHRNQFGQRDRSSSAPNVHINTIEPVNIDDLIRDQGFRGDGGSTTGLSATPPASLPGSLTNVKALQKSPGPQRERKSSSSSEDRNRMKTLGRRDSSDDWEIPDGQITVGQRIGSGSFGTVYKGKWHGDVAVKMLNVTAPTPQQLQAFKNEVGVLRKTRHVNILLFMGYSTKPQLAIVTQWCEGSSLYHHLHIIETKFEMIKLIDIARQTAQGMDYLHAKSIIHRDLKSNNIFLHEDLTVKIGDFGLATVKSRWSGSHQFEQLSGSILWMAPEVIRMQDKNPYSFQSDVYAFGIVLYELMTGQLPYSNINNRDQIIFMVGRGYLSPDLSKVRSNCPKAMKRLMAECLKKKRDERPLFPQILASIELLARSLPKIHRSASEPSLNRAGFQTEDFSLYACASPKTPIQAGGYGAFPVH
Chain of KDR (P35968 20-1356, species assumed): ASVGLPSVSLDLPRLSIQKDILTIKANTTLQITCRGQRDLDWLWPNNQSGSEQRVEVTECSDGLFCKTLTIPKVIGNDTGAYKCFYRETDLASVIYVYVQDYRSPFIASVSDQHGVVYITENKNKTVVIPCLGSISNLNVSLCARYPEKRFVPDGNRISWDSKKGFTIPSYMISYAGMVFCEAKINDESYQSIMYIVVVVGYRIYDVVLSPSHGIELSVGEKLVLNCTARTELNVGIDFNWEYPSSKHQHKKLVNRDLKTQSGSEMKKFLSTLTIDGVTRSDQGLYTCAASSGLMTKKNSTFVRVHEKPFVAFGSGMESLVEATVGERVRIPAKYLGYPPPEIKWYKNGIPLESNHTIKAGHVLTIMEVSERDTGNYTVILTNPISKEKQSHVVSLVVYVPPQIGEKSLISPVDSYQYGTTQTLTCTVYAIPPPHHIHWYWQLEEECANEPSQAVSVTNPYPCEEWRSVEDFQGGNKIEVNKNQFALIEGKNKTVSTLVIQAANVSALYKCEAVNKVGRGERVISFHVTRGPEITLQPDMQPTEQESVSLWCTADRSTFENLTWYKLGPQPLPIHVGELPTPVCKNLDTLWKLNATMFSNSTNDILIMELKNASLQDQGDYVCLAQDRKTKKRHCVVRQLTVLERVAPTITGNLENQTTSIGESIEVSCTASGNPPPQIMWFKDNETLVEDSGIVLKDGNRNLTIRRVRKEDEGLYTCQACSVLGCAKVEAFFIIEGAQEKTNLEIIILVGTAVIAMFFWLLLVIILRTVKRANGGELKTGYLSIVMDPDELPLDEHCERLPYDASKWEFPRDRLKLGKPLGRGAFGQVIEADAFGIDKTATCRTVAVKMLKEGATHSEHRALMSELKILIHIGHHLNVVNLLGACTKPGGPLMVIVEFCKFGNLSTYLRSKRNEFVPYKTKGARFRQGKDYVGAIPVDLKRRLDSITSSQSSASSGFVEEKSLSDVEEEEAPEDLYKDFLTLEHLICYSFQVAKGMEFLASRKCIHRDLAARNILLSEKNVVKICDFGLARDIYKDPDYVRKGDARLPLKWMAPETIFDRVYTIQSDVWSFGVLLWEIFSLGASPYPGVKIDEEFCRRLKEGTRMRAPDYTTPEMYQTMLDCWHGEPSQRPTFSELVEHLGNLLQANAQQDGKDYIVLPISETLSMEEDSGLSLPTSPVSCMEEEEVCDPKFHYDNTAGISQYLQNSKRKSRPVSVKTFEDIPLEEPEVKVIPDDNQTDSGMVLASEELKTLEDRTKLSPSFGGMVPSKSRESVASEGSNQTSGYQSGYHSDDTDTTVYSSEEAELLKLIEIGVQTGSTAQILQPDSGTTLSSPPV

Structure (SMILES)	Percent improvement (%) [1, 2]	inhibition at 3 µM (b-Raf)	inhibition at 3 µM (KDR)	Percent improvement (%) [1, 3]	Percent improvement (%) ([1]; 10 mg/kg subcutaneously 1 hour before measurement on day 24)
COc1ccn2ncc(-c3ccc(Oc4ncc(NC(=O)Nc5cc(C(F)(F)F)ccc5-c5cccnc5)cn4)cc3)c2n1 [Example 21-9, 1-(2-(4-(5-methoxypyrazolo[1,5-a]pyrimidin-3-yl)phenoxy)pyrimidin-5-yl)-3-(2-(pyridin-3-yl)-5-(trifluoromethyl)phenyl)urea]	64%	–	–	–	–
Nc1ncc(F)cc1-c1ccc(Oc2ncc(NC(=O)Nc3cc(C(F)(F)F)ccc3-n3ccnn3)cn2)cc1 [Example 14-5, 1-(2-(1H-1,2,3-triazol-1-yl)-5-(trifluoromethyl)phenyl)-3-(2-(4-(2-amino-5-fluoropyridin-3-yl)phenoxy)pyrimidin-5-yl)urea]	47%	13%	0%	–	–
Cc1cccc(-c2ccc(C(F)(F)F)cc2NC(=O)Nc2cnc(Oc3ccc(-c4cnn5ccc(N(C)C)nc45)cc3)nc2)c1 [Example 21-73, 1-(2-{4-[5-(dimethylamino)pyrazolo[1,5-a]pyrimidin-3-yl]phenoxyl}-5-pyrimidinyl)-3-[3′-methyl-4-(trifluoromethyl)-2-biphenylyl]urea]	–	21%	0%	62%	–
Nc1ncc(Cl)cc1-c1ccc(Oc2ncc(NC(=O)Nc3cc(C(F)(F)F)ccc3-c3ccccc3)cn2)cc1 [Example 15-55, 1-{2-[4-(2-amino-5-chloro-3-pyridinyl)phenoxy]-5-pyrimidinyl}-3-[4-(trifluoromethyl)-2-biphenylyl]urea]	–	30%	0%	62%	–
O=C(Nc1cnc(Oc2ccc(-c3cnn4ccc(N5CCC5)nc34)cc2)nc1)Nc1cc(C(F)(F)F)ccc1-c1cccnc1 [Example 21-1, 1-(2-(4-(5-(azetidin-1-yl)pyrazolo[1,5-a]pyrimidin-3-yl)phenoxy)pyrimidin-5-yl)-3-(2-(pyridin-3-yl)-5-(trifluoromethyl)phenyl)urea]	–	36%	1.5%	–	–
CCOc1ccc2ncc(-c3ccc(Oc4ncc(NC(=O)Nc5cc(C(F)(F)F)ccc5-c5cccnc5)cn4)cc3)n2n1 [Example 22-34, 1-{2-[4-(6-ethoxyimidazo[1,2-b]pyridazin-3-yl)phenoxy]-5-pyrimidinyl}-3-[2-(3-pyridinyl)-5-(trifluoromethyl)phenyl]urea]	–	56%	19%	–	–
COc1cccc(C2(O)CCCCC2CN(C)C)c1 (centres unmarked) [Tramadol, tramadol, reference compound]	–	–	–	–	43%
CCNc1ccn2ncc(-c3ccc(Oc4ncc(NC(=O)Nc5cc(C(F)(F)F)ccc5-c5cccc(C)c5)cn4)cc3)c2n1 [Example 21-67, 1-(2-{4-[5-(ethylamino)pyrazolo[1,5-a]pyrimidin-3-yl]phenoxyl}-5-pyrimidinyl)-3-[3′-methyl-4-(trifluoromethyl)-2-biphenylyl]urea]	–	19%	0%	–	–
Nc1ncc(Cl)cc1-c1ccc(Oc2ncc(NC(=O)Nc3ccc(C(F)(F)F)cc3-n3cccn3)cn2)cc1 [Example 15-4, 1-(2-(1H-pyrazol-1-yl)-4-(trifluoromethyl)phenyl)-3-(2-(4-(2-amino-5-chloropyridin-3-yl)phenoxy)pyrimidin-5-yl)urea]	–	0%	0%	–	–
Nc1ncc(Cl)cc1-c1ccc(Oc2ncc(NC(=O)Nc3cc(C(F)(F)F)ccc3-n3cccn3)cn2)cc1 [Example 7, 1-(2-(1H-pyrazol-1-yl)-5-(trifluoromethyl)phenyl)-3-(2-(4-(2-amino-5-chloropyridin-3-yl)phenoxy)pyrimidin-5-yl)urea]	61%	40%	0%	–	–
Nc1ncc(Cl)cc1-c1ccc(Oc2ncc(NC(=O)Nc3cc(C(F)(F)F)ccc3-n3cc(Cl)cn3)cn2)cc1 [Example 15-63, 1-{2-[4-(2-amino-5-chloro-3-pyridinyl)phenoxy]-5-pyrimidinyl}-3-[2-(4-chloro-1H-pyrazol-1-yl)-5-(trifluoromethyl)phenyl]urea]	–	43%	0%	53%	–
CS(=O)(=O)c1ccc(C(F)(F)F)cc1NC(=O)Nc1cnc(Oc2ccc(-c3cc(C(F)(F)F)cnc3N)cc2)nc1 [Example 15-98, 1-(2-{4-[2-amino-5-(trifluoromethyl)-3-pyridinyl]phenoxyl}-5-pyrimidinyl)-3-[2-(methylsulfonyl)-5-(trifluoromethyl)phenyl]urea]	–	23%	8%	57%	–
O=C(Nc1cnc(Oc2ccc(-c3cnn4cccnc34)cc2)nc1)Nc1cc(C(F)(F)F)ccc1-c1cccnc1 [Example 21-13, 1-(2-(4-(pyrazolo[1,5-a]pyrimidin-3-yl)phenoxy)pyrimidin-5-yl)-3-(2-(pyridin-3-yl)-5-(trifluoromethyl)phenyl)urea]	66%	–	–	–	–
CS(=O)(=O)c1ccc(C(F)(F)F)cc1NC(=O)Nc1cnc(Oc2ccc(-c3cc(F)cnc3N)cc2)nc1 [Example 15-96, 1-{2-[4-(2-amino-5-fluoro-3-pyridinyl)phenoxy]-5-pyrimidinyl}-3-[2-(methylsulfonyl)-5-(trifluoromethyl)phenyl]urea]	–	22%	2%	–	–
Nc1ncc(C(F)(F)F)cc1-c1ccc(Oc2ncc(NC(=O)Nc3cc(C(F)(F)F)ccc3-n3cc(Cl)cn3)cn2)cc1 [Example 15-87, 1-(2-{4-[2-amino-5-(trifluoromethyl)-3-pyridinyl]phenoxyl}-5-pyrimidinyl)-3-[2-(4-chloro-1H-pyrazol-1-yl)-5-(trifluoromethyl)phenyl]urea]	–	34%	0%	57%	–
Cc1ccccc1-c1ccc(C(F)(F)F)cc1NC(=O)Nc1cnc(Oc2ccc(-c3cnn4ccc(N(C)C)nc34)cc2)nc1 [Example 21-75, 1-(2-{4-[5-(dimethylamino)pyrazolo[1,5-a]pyrimidin-3-yl]phenoxyl}-5-pyrimidinyl)-3-[2′-methyl-4-(trifluoromethyl)-2-biphenylyl]urea]	–	41%	0%	–	–
CN(C)S(=O)(=O)c1ccc(C(F)(F)F)cc1NC(=O)Nc1cnc(Oc2ccc(-c3cc(C(F)(F)F)cnc3N)cc2)nc1 [Example 15-105, 2-{[(2-{4-[2-amino-5-(trifluoromethyl)-3-pyridinyl]phenoxyl}-5-pyrimidinyl)carbamoyl]amino}-N,N-dimethyl-4-(trifluoromethyl)benzenesulfonamide]	–	26%	0%	–	–
Cn1nccc1-c1ccc(C(F)(F)F)cc1NC(=O)Nc1cnc(Oc2ccc(-c3cc(Cl)cnc3N)cc2)nc1 [Example 13-1, 1-(2-(4-(2-amino-5-chloropyridin-3-yl)phenoxy)pyrimidin-5-yl)-3-(2-(1-methyl-1H-pyrazol-5-yl)-5-(trifluoromethyl)phenyl)urea]	–	33%	7.5%	–	–
Cn1nccc1-c1ccc(C(F)(F)F)cc1NC(=O)Nc1cnc(Oc2ccc(-c3cnn4ccc(N5CCC5)nc34)cc2)nc1 [Example 21-2, 1-(2-(4-(5-(azetidin-1-yl)pyrazolo[1,5-a]pyrimidin-3-yl)phenoxy)pyrimidin-5-yl)-3-(2-(1-methyl-1H-pyrazol-5-yl)-5-(trifluoromethyl)phenyl)urea]	–	30%	1%	–	–
Cc1ccn2ncc(-c3ccc(Oc4ncc(NC(=O)Nc5cc(C(F)(F)F)ccc5-c5cccnc5)cn4)cc3)c2n1 [Example 21-65, 1-{2-[4-(5-methylpyrazolo[1,5-a]pyrimidin-3-yl)phenoxy]-5-pyrimidinyl}-3-[2-(3-pyridinyl)-5-(trifluoromethyl)phenyl]urea]	–	58%	19%	–	–
Nc1ncc(F)cc1-c1ccc(Oc2ncc(NC(=O)Nc3cc(C(F)(F)F)ccc3-c3ccccc3)cn2)cc1 [Example 15-58, 1-{2-[4-(2-amino-5-fluoro-3-pyridinyl)phenoxy]-5-pyrimidinyl}-3-[4-(trifluoromethyl)-2-biphenylyl]urea]	–	30%	0%	–	–
Nc1ncc(Cl)cc1-c1ccc(Oc2ncc(NC(=O)Nc3cc(Cl)ccc3-n3ccc(C(F)(F)F)n3)cn2)cc1 [Example 15-71, 1-{2-[4-(2-amino-5-chloro-3-pyridinyl)phenoxy]-5-pyrimidinyl}-3-{5-chloro-2-[3-(trifluoromethyl)-1H-pyrazol-1-yl]phenyl}urea]	–	40%	0%	–	–
Nc1ncc(Cl)cc1-c1ccc(Oc2ncc(NC(=O)Nc3cc(C(F)(F)F)ccc3-n3ccc(C(F)(F)F)n3)cn2)cc1 [Example 8-2, 1-(2-(4-(2-amino-5-chloropyridin-3-yl)phenoxy)pyrimidin-5-yl)-3-(5-(trifluoromethyl)-2-(3-(trifluoromethyl)-1H-pyrazol-1-yl)phenyl)urea]	–	21%	0%	–	–
